Experimental data reported in the CheMixHub viscosity set.
± gives the uncertainty stated by the source.

Assay: xn = mol fraction of the nth substance listed

CCOC(=O)C(=O)OCC + CCOC(C)=O
viscosity [mPa·s], 101 kPa
Details	x1 = 0.0949	x1 = 0.196	x1 = 0.3019	x1 = 0.4065	x1 = 0.5006	x1 = 0.6036	x1 = 0.6954	x1 = 0.7993	x1 = 0.8948
303.15 K	0.458 ± 0.028	0.535 ± 0.032	0.636 ± 0.038	0.736 ± 0.044	0.844 ± 0.051	0.978 ± 0.059	1.107 ± 0.067	1.265 ± 0.076	1.428 ± 0.086
313.15 K	0.423 ± 0.026	0.486 ± 0.029	0.56 ± 0.034	0.647 ± 0.039	0.734 ± 0.044	0.847 ± 0.051	0.95 ± 0.057	1.081 ± 0.065	1.203 ± 0.072
323.15 K	0.381 ± 0.023	0.436 ± 0.026	0.499 ± 0.03	0.571 ± 0.034	0.646 ± 0.039	0.74 ± 0.045	0.825 ± 0.05	0.928 ± 0.056	1.028 ± 0.062

CCCCNCCCC + CO
viscosity [mPa·s], 101 kPa
Details	x2 = 0.0931	x2 = 0.1959	x2 = 0.2948	x2 = 0.3963	x2 = 0.4955	x2 = 0.6075	x2 = 0.7011	x2 = 0.7979	x2 = 0.9185
303.15 K	0.745 ± 0.004	0.725 ± 0.004	0.706 ± 0.004	0.689 ± 0.004	0.663 ± 0.004	0.639 ± 0.004	0.609 ± 0.004	0.579 ± 0.003	0.548 ± 0.003
313.15 K	0.643 ± 0.004	0.626 ± 0.004	0.61 ± 0.004	0.595 ± 0.004	0.569 ± 0.003	0.549 ± 0.003	0.525 ± 0.003	0.501 ± 0.003	0.476 ± 0.003
323.15 K	0.543 ± 0.003	0.528 ± 0.003	0.513 ± 0.003	0.498 ± 0.003	0.483 ± 0.003	0.467 ± 0.003	0.452 ± 0.003	0.435 ± 0.003	0.413 ± 0.002

CCCC(C)O (stereo not given) + CCCCCC
viscosity [mPa·s], 101.33 kPa
Details	x1 = 0.1	x1 = 0.2	x1 = 0.3	x1 = 0.4	x1 = 0.5	x1 = 0.6	x1 = 0.7	x1 = 0.8	x1 = 0.9
303 K	0.28 ± 0.007	0.31 ± 0.008	0.382 ± 0.01	0.537 ± 0.014	0.682 ± 0.017	0.878 ± 0.022	1.228 ± 0.031	1.588 ± 0.041	1.965 ± 0.051
313 K	0.249 ± 0.006	0.277 ± 0.007	0.36 ± 0.009	0.44 ± 0.011	0.544 ± 0.014	0.802 ± 0.02	0.967 ± 0.025	1.21 ± 0.031	1.484 ± 0.038
323 K	0.228 ± 0.006	0.254 ± 0.006	0.31 ± 0.008	0.385 ± 0.01	0.472 ± 0.012	0.634 ± 0.016	0.805 ± 0.02	0.981 ± 0.025	1.138 ± 0.029

CCCCNCCCC + CCC(=O)O
viscosity [mPa·s], 101.33 kPa
Details	293.15 K	293.5 K	298.15 K	303.15 K	308.15 K	313.15 K	318.15 K	323.15 K
x2 = 0.2	–	2.45 ± 0.25	2.21 ± 0.03	2.05 ± 0.02	1.87 ± 0.02	1.69 ± 0.02	1.54 ± 0.02	1.44 ± 0.01
x2 = 0.4	20.21 ± 1.1	–	15.81 ± 0.22	12.24 ± 0.16	9.94 ± 0.12	7.97 ± 0.1	6.42 ± 0.07	5.61 ± 0.06
x2 = 0.5	–	–	–	48.04 ± 0.45	35.66 ± 0.5	27.31 ± 0.36	21.32 ± 0.26	17.49 ± 0.21
x2 = 0.6	109.3 ± 1	–	80.86 ± 1.1	64.2 ± 0.77	49.41 ± 0.6	39.46 ± 0.45	31.87 ± 0.35	25.8 ± 0.28
x2 = 0.7	125.9 ± 1.6	–	94.32 ± 1.2	72.81 ± 0.93	54.5 ± 0.71	42.04 ± 0.49	34.15 ± 0.36	27.7 ± 0.29
x2 = 0.75	139.3 ± 0.97	–	102.5 ± 1.5	74.31 ± 1	58.19 ± 0.71	44.26 ± 0.54	35.31 ± 0.4	27.67 ± 0.32
x2 = 0.8	16.74 ± 0.51	–	14.24 ± 0.38	11.85 ± 0.27	10.22 ± 0.21	8.75 ± 0.16	7.62 ± 0.12	6.98 ± 0.1

CC[N+](CC)(CC)CC.[OH-] + CS(C)=O
viscosity [mPa·s], 100 kPa
Details	298.15 K	303.15 K	308.15 K	313.15 K
x1 = 0.0142	2.08 ± 0.05	1.9 ± 0.04	1.77 ± 0.04	1.67 ± 0.04
x1 = 0.0405	2.24 ± 0.05	2.07 ± 0.04	1.96 ± 0.04	1.88 ± 0.04
x1 = 0.0693	2.45 ± 0.05	2.29 ± 0.05	2.18 ± 0.05	2.09 ± 0.05
x1 = 0.0995	2.65 ± 0.06	2.49 ± 0.05	2.38 ± 0.05	2.29 ± 0.05
x1 = 0.1314	2.89 ± 0.06	2.72 ± 0.06	2.62 ± 0.06	2.52 ± 0.05
x1 = 0.165	3.11 ± 0.07	2.95 ± 0.06	2.84 ± 0.06	2.76 ± 0.06
x1 = 0.1925	3.29 ± 0.07	3.12 ± 0.07	3 ± 0.06	2.92 ± 0.06
x1 = 0.2381	3.57 ± 0.08	3.41 ± 0.07	3.3 ± 0.07	3.24 ± 0.07
x1 = 0.2988	3.9 ± 0.08	3.75 ± 0.08	3.66 ± 0.08	3.58 ± 0.08
x1 = 0.3654	4.23 ± 0.09	4.1 ± 0.09	4 ± 0.08	3.95 ± 0.08
x1 = 0.4134	4.45 ± 0.09	4.34 ± 0.09	4.22 ± 0.09	4.18 ± 0.09
x1 = 0.4647	4.66 ± 0.1	4.56 ± 0.1	4.45 ± 0.09	4.41 ± 0.09
x1 = 0.5486	4.94 ± 0.1	4.85 ± 0.1	4.73 ± 0.1	4.71 ± 0.1
x1 = 0.6421	5.17 ± 0.11	5.08 ± 0.11	4.96 ± 0.1	4.92 ± 0.1
x1 = 0.7106	5.37 ± 0.11	5.17 ± 0.11	5.02 ± 0.11	5 ± 0.11
x1 = 0.7848	5.3 ± 0.11	5.2 ± 0.11	5.03 ± 0.11	4.99 ± 0.11
x1 = 0.8653	5.23 ± 0.11	5.12 ± 0.11	4.96 ± 0.1	4.89 ± 0.1
x1 = 0.9531	5.08 ± 0.11	4.89 ± 0.1	4.67 ± 0.1	4.54 ± 0.1
